Experimental data published in PMC9369325, “MATE1 Deficiency Exacerbates Dofetilide-Induced Proarrhythmia” (International Journal of Molecular Sciences, 2022).

What was measured:
[1] = biological target: T1, human MATE1 (Homo sapiens, UniProt Q96FL8); experiment: cell-based
T1 sequence (Q96FL8 1-570): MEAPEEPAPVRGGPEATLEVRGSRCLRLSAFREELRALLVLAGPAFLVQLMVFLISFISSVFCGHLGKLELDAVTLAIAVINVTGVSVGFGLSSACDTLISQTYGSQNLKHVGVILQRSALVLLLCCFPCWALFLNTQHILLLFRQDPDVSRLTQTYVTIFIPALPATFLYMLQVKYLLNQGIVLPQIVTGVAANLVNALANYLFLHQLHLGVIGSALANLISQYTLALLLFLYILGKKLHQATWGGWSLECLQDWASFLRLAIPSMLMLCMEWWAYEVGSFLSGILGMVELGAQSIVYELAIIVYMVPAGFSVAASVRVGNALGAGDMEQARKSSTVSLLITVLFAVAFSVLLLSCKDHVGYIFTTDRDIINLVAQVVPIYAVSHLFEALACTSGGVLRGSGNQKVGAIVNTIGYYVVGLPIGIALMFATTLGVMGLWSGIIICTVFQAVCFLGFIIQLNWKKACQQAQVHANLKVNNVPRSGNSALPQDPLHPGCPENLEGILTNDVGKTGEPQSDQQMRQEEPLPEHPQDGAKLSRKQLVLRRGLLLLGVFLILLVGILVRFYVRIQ

[2] = biological target: T2, human (h) MATE1 (Homo sapiens, UniProt Q96FL8); experiment: Uptake of [14C] TEA and [14C] metformin in HEK293 cells overexpressing human MATE1 after preincubation with dofetilide; assay type: cell-based; settings: dofetilide 1-50 µM, preincubation 15 min; TEA 2 µM, metformin 5 µM
T2 construct: host or cells: HEK293 (Flp-In system, pcDNA5/FRT vector)
T2 sequence (Q96FL8 1-570): T1 sequence (Q96FL8 1-570)
Method: In brief, cells were seeded in 12- or 24-well plates in phenol red-free DMEM containing 10% FBS, and were incubated at 37 °C for 24 h. […] Uptake studies were performed with [^14C] […]
overexpressing mouse (m) OCT2, OCTN1, or MATE1. Relative uptake is expressed as percentage change compared with empty vector controls (n = 3). (B) Uptake of [14C] TEA (2 µM) and [14C] metformin (5 µM) in HEK293 cells […]
followed by the co-incubation with TEA and metformin for 15 min. Data represent the mean ± SEM and are expressed as a percentage over vector control. (C) Gene expression of MATE1 in the kidney isolated from untreated male and female wild-type mice (n = 4 per group). (D) Protein expression of MATE1 in the heart isolated from untreated wild-type (WT) and MATE1-/- mice (n=3). Immunohistochemical detection of MATE1 (bottom panels) in the wild-type mouse heart (E) and kidney (F). Tissue staining lacking the primary antibody was performed as a negative control for each tissue group (top panels). Representative images were taken at x40 magnification. (G) […]
(also on this page, place not known: hMATE1 (% Control) mOCT2mOCTN1mMA TE 1 No PrimaryMATE1 Relative Uptake in of) […]

[3] = system: cardiomyocytes isolated from wild-type or MATE1-deficient mice; experiment: Ex vivo cardiomyocyte uptake of [3H] dofetilide; assay type: cell-based, mouse; settings: [3H] dofetilide 2 µM; cardiomyocytes from MATE1-/- vs wild-type mice
Method: Briefly, hearts from wild-type and MATE1-deficient mice were quickly removed and perfused on a Langendorff’s apparatus at 37 °C. After a 5 min perfusion with Ca^2+-free tyrode solution containing (in mM): 140 NaCl, 5.4 KCl 0.5 MgCl2, 10 Hepes and 5.6 glucose; pH 7.3, the perfusate was then switched to tyrode solution containing Liberase Blendzymes (Roche, Applied Science, IN) for digestion of the connective tissue. After 20 min of digestion, cardiomyocytes were isolated from dissected and triturated hearts and stabilized in BSA containing tyrode solution.
Isolated cardiomyocytes were then plated in 12 well plates containing Ca^2+ and Mg^2+ free Hank’s balanced salt solution.

[4] = biological target: T3, MATE1 (SLC47A1) (Homo sapiens, UniProt Q96FL8); experiment: in vitro; settings: HEK293 cells overexpressing human MATE1
T3 sequence (Q96FL8 1-570): T1 sequence (Q96FL8 1-570)

[5] = humans; cited from earlier work

CCC(C)n1ncn(-c2ccc(N3CCN(c4ccc(OCC5COC(Cn6cncn6)(c6ccc(Cl)cc6Cl)O5)cc4)CC3)cc2)c1=O (stereo not shown) [Itraconazole, itraconazole] gave an IC50 [1] of 320 nM.

CC(=O)N1CCN(c2ccc(OCC3COC(Cn4ccnc4)(c4ccc(Cl)cc4Cl)O3)cc2)CC1 (stereo not shown) [Ketoconazole, ketoconazole] showed an IC50 [1] of 170 nM.

COc1cc2c(Nc3ccc(Br)cc3F)ncnc2cc1OCC1CCN(C)CC1 [Vandetanib, vandetanib] showed an IC50 [1] of 130 nM.

For CN(CCOc1ccc(NS(C)(=O)=O)cc1)CCc1ccc(NS(C)(=O)=O)cc1 [dofetilide], the “inhibition of MATE1-dependent transport of TEA and metformin” value [2] was “dose-dependently inhibit”, the “accumulation of dofetilide in cardiomyocytes” value [3] was “significantly increased in the absence of MATE1” and the Km at 2 min [4] was 6.72 ± 1.71 µM. The “higher dofetilide plasma concentrations in females than males” value [5] was 14–22%.
